Assay results published in patent US20230373972A1, “PIPERAZINE DERIVATIVE, PREPARATION METHOD THEREFOR AND USE THEREOF” (Zhejiang Hisun Pharmaceutical Co., Ltd., priority 2020, published 2023).

How the values were obtained:
human plasma = assay: In-vitro anticoagulation on human plasma (APTT kit, coagulation time); conditions: concentration of the compound when the coagulation time (APTT) was prolonged twice
Protocol: The following method was used to determine the in-vitro anticoagulation of the compound of the present invention in the human plasma. In the method, an APTT kit of the MediRox company was used to test. The APTT kit was purchased from MediRox (article number MRX930), and the human plasma was prepared internally.
The preparation of the human plasma was briefly described as follows: human plasma was collected in a blood collection tube containing sodium citrate, and centrifuged at 3,000 rpm for 10 minutes at room temperature, and plasma was collected, and packaged separately and stored at −80° C.
An APTT test process was briefly described as follows: a test compound was dissolved in DMSO to prepare a 10 mM storage solution first, then the test compound was diluted with DMSO by a triple gradient, and a final concentration of the test compound in a reaction system ranged from 217 μM to 0.03 μM. 4 μL, of test compounds at different concentrations diluted with DMSO were added to a centrifuge tube containing 180 μL of plasma, and 4 μL of DMSO was added to a blank group, shaken and mixed evenly, and incubated at 37° C. for 5 minutes. Subsequently, an APTT reagent was placed in a reagent holder according to instrument requirements, the incubated plasma sample was placed in a detection position of a coagulation analyzer, and a coagulation time was determined and recorded (s). With a final concentration of the compound as an abscissa and Ratio (Ratio=TiT0, wherein T0 was a coagulation time of a blank control, and Ti was a coagulation time of a compound to be tested) as an ordinate, a coagulation dose-effect curve was drawn by Graph Pad Prisms, and a concentration of the compound when the coagulation time was prolonged twice was calculated, which was namely a CT2 value, as shown in Table 2.

[1] = target: T1, Native human Factor XIa protease (Homo sapiens, UniProt P03951); assay: Inhibition of activity of Factor XIa protease (chromogenic substrate S-2366); type: biochemical; conditions: S-2366 1 mM, 37° C. 10 minutes, absorption at 405 nm
T1 construct: The Native human Factor XIa protease was purchased from Abcam; purchased Abcam ab62411
T1 sequence (P03951 388-625 limits assumed): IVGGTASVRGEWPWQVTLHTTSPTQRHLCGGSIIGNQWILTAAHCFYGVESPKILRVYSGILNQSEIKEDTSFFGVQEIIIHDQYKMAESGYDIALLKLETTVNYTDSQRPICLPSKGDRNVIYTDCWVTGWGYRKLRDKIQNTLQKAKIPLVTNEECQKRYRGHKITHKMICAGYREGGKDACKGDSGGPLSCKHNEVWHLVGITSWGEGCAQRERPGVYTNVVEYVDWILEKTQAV
T1 sequence (P03951 19-387 partner limits assumed): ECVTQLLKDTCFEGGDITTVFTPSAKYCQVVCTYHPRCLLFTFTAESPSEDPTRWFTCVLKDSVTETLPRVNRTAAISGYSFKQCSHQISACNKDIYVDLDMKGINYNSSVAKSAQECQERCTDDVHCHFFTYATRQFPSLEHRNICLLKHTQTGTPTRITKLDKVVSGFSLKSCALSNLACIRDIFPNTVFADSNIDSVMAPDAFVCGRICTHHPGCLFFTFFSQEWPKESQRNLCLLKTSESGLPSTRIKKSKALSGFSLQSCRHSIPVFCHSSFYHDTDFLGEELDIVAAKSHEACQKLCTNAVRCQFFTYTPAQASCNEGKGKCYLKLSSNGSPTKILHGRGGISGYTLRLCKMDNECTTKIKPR
From the text: The following method was used to determine an inhibition degree of the compound of the present invention on an activity of Native human Factor XIa protease in vitro. In the method, a Factor XIa chromogenic substrate was used to test the inhibition degree on the activity of the Factor XIa protease. The Native human Factor XIa protease was purchased from Abcam (article number ab62411), and S-2366 was purchased from Chromogenix (article number 82109039). An experimental process was briefly described as follows: a test compound was dissolved in DMSO to prepare a 10 mM storage solution first, then the compound was diluted with a Factor XIa reaction buffer (100 mM Tris-HCl, 200 mM NaCl, 0.02% Tween 20, pH 7.4) by a quadruple gradient, and a final concentration of the test compound in a reaction system ranged from 10,000 nM to […]. The reaction was carried out in a 384-well microplate. 2 μL of the test compounds at different concentrations diluted with the reaction buffer were added to wells first, and 2 μL of 1% DMSO (a final concentration of DMSO in the reaction system was 0.1%) was used to replace blank and control wells. Subsequently, 8 μL of enzyme working solution (a final concentration of Factor XIa was […]) was added to each well, and 8 μL of Factor XIa reaction buffer was used to replace the blank well, centrifuged for 30 seconds, and incubated on ice for 5 minutes. Finally, 10 μL of substrate working solution (a final concentration of S-2366 was 1 mM) was added to each well, and centrifuged for 30 seconds, and the reaction was started. The solution was incubated at 37° C. for 10 minutes to determine a light absorption value at 405 nm. By comparing with a light absorption value of the control group (0.1% DMSO), a percentage inhibition rate of the compound at each concentration was calculated, and nonlinear regression analysis was carried out on value-inhibition rate with the concentration of the compound by GraphPad Prism 5 software, so as to obtain an IC50 value of the compound, as shown in Table 1.

Compound	IC50 [1]	CT2 (human plasma)
O=C(Nc1ccc2c(cnn2C(F)F)c1)C(Cc1ccccc1)N1CC(=O)N(c2cc(Cl)ccc2-n2cnnn2)CC1=O (stereo not shown) [Example 33, 2-(4-(5-chloro-2-(1H-tetrazol-1-yl)phenyl)-2,5-dioxopiperazin-1-yl)-N-(1-(difluoromethyl)-1H-indazol-5-yl)-3-phenylpropanamide]	26.1 nM	18.5 µM
O=C(Nc1ccc(N2CCOC2=O)cc1)C(Cc1ccccc1)N1CC(=O)N(c2cc(Cl)ccc2-n2cnnn2)CC1=O (stereo not shown) [Example 14, 2-(4-(5-Chloro-2-(1H-tetrazol-1-yl)phenyl)-2,5-dioxopiperazin-1-yl)-N-(4-(2-oxooxazolidin-3-yl)phenyl)-3-phenylpropanamide]	44 nM	14.3 µM
[2H]C([2H])([2H])n1cc2cc(NC(=O)C(Cc3ccc(F)cc3)N3CC(=O)N(c4cc(Cl)ccc4-n4cc(Cl)nn4)CC3=O)ccc2n1 (stereo not shown) [Example 114, 2-(4-(5-chloro-2-(4-chloro-1H-1,2,3-triazol-1-yl)phenyl)-2,5-dioxopiperazin-1-yl)-3-(4-fluorophenyl)-N-(2-(methyl-d3)-2H-indazol-5-yl)propanamide]	48.6 nM	14.9 µM
CNC(=O)c1ccc(NC(=O)C(Cc2ccccc2)N2CC(=O)N(c3cc(Cl)ccc3-n3cnnn3)CC2=O)cc1F (stereo not shown) [Example 20, 4-(2-(4-(5-Chloro-2-(1H-tetrazol-1-yl)phenyl)-2,5-dioxopiperazin-1-yl)-3-phenylpropanamido)-2-fluoro-N-methylbenzamide]	30.5 nM	8.6 µM
O=C(Nc1ccn2nccc2c1)C(Cc1ccccc1)N1CC(=O)N(c2cc(Cl)ccc2-n2cc(Cl)nn2)CC1=O (stereo not shown) [Example 40, 2-(4-(5-chloro-2-(4-chloro-1H-1,2,3-triazol-1-yl)phenyl)-2,5-dioxopiperazin-1-yl)-3-phenyl-N-(pyrazolo[1.5-a]pyridin-5-yl)propanamide]	44.7 nM	

More lines, main results first:

IC50 [1]	Compound	CT2 (human plasma)
25.1 nM	O=C(Nc1cccc(F)c1)C(Cc1ccccc1)N1CC(=O)N(c2cc(Cl)ccc2-n2cnnn2)CC1=O (stereo not shown) [Example 15, 2-(4-(5-Chloro-2-(1H-tetrazol-1-yl)phenyl)-2,5-dioxopiperazine-1-yl)-N-(3-fluorophenyl)-3-phenylpropanamide]	9.9 µM
16.9 nM	O=C(O)c1ccc(NC(=O)C(Cc2ccccc2)N2CC(=O)N(c3cc(Cl)ccc3-n3cc(Cl)nn3)CC2=O)cc1 (stereo not shown) [Example 26, 4-(2-(4-(5-Chloro-2-(4-chloro-1H-1,2,3-triazol-1-yl)phenyl)-2,5-dioxopiperazin-1-yl)-3-phenylpropanamido)benzoic Acid]	7.0 µM
17.6 nM	O=C(Nc1ccn2nccc2c1)C(Cc1ccccc1)N1CC(=O)N(c2cc(Cl)ccc2-n2cnnn2)CC1=O (stereo not shown) [Example 37, 2-(4-(5-chloro-2-(1H-tetrazol-1-yl)phenyl)-2,5-dioxopiperazin-1-yl)-3-phenyl-N-(pyrazolo[1.5-a]pyridin-5-yl)propanamide]	7.5 µM
36.7 nM	NC(=O)c1ccc(NC(=O)C(Cc2ccccc2)N2CC(=O)N(c3cc(Cl)ccc3-n3cnnn3)CC2=O)cc1 (stereo not shown) [Example 3, 4-(2-(4-(5-Chloro-2-(1H-tetrazol-1-yl)phenyl)-2,5-dioxopiperazin-1-yl)-3-phenylpropanamido)benzamide]	6.6 µM
43.9 nM	O=C(Nc1ccc(N2CCCC2=O)cc1)C(Cc1ccccc1)N1CC(=O)N(c2cc(Cl)ccc2-n2cnnn2)CC1=O (stereo not shown) [Example 10, 2-(4-(5-Chloro-2-(1H-tetrazol-1-yl)phenyl)-2,5-dioxopiperazin-1-yl)-N-(4-(2-oxopyrrolidin-1-yl)phenyl)-3-phenylpropanamide]	
49.8 nM	CCOC(=O)c1ccc(NC(=O)C(Cc2ccccc2)N2CC(=O)N(c3cc(Cl)ccc3-n3cnnn3)CC2=O)cc1 (stereo not shown) [Example 4, Ethyl 4-(2-(4-(5-chloro-2-(1H-tetrazol-1-yl)phenyl)-2,5-dioxopiperazin-1-yl)-3-phenylpropanamido) benzoate]	
